Data as given in ChEMBL document CHEMBL5223162, “Discovery of Pyrazolopyridine Derivatives as HPK1 Inhibitors” (ACS Med Chem Lett, 2023).

What was measured:
[1] = target: T1, Mitogen-activated protein kinase kinase kinase kinase 1 (Homo sapiens, UniProt Q92918); assay: Binding affinity to recombinant human HPK1 (1 to 346 residues) expressed sf9 cells incubated for 1 hr by LanthaScreen assay
[2] = target: T1, Mitogen-activated protein kinase kinase kinase kinase 1; assay: Inhibition of human HPK1 in human Jurkat cells assessed as reduction in SLP76 phosphorylation incubated for 1 hr by HTRF assay; format: cell-based
[3] = Intrinsic clearance in human liver microsomes at 1 uM and measured upto 30 mins in presence of NADPH by LC-MS analysis; format: ADME, Microsome; conditions: read-out: CLH (converted)
[4] = target: T2, Receptor-type tyrosine-protein kinase FLT3 (Homo sapiens, UniProt P36888); assay: Inhibition of FLT3 (unknown origin) in presence of ATP
T2 sequence (P36888 whole entry): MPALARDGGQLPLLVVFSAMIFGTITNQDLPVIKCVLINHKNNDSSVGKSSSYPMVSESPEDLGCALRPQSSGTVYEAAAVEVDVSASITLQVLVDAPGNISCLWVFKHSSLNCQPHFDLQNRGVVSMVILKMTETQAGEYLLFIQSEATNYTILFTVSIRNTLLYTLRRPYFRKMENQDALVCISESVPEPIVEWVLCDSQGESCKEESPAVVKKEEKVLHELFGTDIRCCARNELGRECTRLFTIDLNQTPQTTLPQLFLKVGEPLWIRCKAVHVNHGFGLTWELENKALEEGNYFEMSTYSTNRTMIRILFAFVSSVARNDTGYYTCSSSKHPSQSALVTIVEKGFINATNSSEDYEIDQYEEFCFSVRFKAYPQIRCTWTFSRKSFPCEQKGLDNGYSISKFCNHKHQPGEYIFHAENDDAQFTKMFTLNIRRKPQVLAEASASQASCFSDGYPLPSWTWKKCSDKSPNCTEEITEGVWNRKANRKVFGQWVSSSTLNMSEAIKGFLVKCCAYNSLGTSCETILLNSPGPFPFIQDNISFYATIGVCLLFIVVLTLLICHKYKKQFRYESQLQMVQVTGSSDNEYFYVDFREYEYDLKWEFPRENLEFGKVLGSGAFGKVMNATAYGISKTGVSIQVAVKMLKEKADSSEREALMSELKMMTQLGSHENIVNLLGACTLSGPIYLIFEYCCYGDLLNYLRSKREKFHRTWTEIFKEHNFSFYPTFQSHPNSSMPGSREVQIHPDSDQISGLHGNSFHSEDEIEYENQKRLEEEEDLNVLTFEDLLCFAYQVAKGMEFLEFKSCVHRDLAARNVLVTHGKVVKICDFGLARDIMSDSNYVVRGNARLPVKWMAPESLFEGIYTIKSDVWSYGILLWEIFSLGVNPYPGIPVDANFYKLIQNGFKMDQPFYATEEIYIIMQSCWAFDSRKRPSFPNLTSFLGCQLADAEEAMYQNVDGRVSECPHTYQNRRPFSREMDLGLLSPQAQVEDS

Cytochrome P450 3A4 [5] = target: T3, Cytochrome P450 3A4 (Homo sapiens, UniProt P08684); assay: Inhibition of CYP3A4 in human liver microsomes using midazolam as substrate by LC-MS analysis; format: ADME, Microsome
Cytochrome P450 3A4 [6] = target: T3, Cytochrome P450 3A4; assay: Inhibition of CYP3A4 in human liver microsomes using testosterone as substrate by LC-MS analysis; format: ADME, Microsome
[7] = target: Mast/stem cell growth factor receptor Kit (Homo sapiens, UniProt P10721); assay: Inhibition of KIT (unknown origin) in presence of ATP
Cytochrome P450 2C19 = Cytochrome P450 2C19 (Homo sapiens, UniProt P33261); assay: Time dependent inhibition of CYP2C19 in human liver microsomes using S mephenytoin as substrate by LC-MS analysis; format: ADME, Microsome; conditions: TDE = time-dependent effect
[8] = Permeability across apical to basolateral side in human Caco2 cells at 50 uM and measured after 120 mins by LC-MS analysis; format: ADME, cell-based; conditions: Caco-2, read-out: permeability
[9] = Half life in cynomolgus monkey at 1 mg/kg, iv and measured upto 24 hrs by LC-MS/MS analysis; format: ADME, organism-based, Macaca fascicularis; conditions: in vivo
[10] = Volume of distribution at steady state in cynomolgus monkey at 1 mg/kg, iv and measured upto 24 hrs by LC-MS/MS analysis; format: ADME, organism-based, Macaca fascicularis; conditions: in vivo
[11] = Oral bioavailability in cynomolgus monkey at 3 mg/kg and measured upto 24 hrs by LC-MS/MS analysis; format: ADME, organism-based, Macaca fascicularis; conditions: in vivo
[12] = Clearance in cynomolgus monkey at 1 mg/kg, iv and measured upto 24 hrs by LC-MS/MS analysis; format: ADME, organism-based, Macaca fascicularis; conditions: in vivo
[13] = AUC in Sprague-Dawley rat at 3 mg/kg, po and measured upto 24 hrs by LC-MS/MS analysis; format: ADME, organism-based; parameters: dose 3 mg/kg, time < 24 hrs, route po; conditions: in vivo
[14] = Fraction unbound in human plasma by LC-MS/MS analysis; format: ADME, cell-free
[15] = AUC in cynomolgus monkey at 3 mg/kg, po and measured upto 24 hrs by LC-MS/MS analysis; format: ADME, organism-based, Macaca fascicularis; parameters: dose 3 mg/kg, time < 24 hrs, route po; conditions: in vivo
[16] = Clearance in Sprague-Dawley rat at 1.5 mg/kg, iv and measured upto 24 hrs by LC-MS/MS analysis; format: ADME, organism-based; conditions: in vivo

T3 sequence (P08684 whole entry): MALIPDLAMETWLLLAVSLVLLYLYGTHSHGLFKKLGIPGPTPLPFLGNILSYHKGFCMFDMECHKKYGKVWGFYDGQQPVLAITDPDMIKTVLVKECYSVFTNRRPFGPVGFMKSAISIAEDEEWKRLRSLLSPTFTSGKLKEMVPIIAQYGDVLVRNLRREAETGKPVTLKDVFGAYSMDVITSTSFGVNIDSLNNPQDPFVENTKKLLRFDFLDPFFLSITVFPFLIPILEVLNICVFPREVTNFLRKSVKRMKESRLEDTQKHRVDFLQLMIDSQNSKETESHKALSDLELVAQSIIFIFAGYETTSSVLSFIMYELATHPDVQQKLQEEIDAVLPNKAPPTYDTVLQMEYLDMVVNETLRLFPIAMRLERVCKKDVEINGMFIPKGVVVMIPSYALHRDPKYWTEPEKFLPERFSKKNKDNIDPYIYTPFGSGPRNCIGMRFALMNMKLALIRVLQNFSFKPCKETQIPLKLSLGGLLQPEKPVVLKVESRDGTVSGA
Sequence of Mast/stem cell growth factor receptor Kit (P10721 whole entry): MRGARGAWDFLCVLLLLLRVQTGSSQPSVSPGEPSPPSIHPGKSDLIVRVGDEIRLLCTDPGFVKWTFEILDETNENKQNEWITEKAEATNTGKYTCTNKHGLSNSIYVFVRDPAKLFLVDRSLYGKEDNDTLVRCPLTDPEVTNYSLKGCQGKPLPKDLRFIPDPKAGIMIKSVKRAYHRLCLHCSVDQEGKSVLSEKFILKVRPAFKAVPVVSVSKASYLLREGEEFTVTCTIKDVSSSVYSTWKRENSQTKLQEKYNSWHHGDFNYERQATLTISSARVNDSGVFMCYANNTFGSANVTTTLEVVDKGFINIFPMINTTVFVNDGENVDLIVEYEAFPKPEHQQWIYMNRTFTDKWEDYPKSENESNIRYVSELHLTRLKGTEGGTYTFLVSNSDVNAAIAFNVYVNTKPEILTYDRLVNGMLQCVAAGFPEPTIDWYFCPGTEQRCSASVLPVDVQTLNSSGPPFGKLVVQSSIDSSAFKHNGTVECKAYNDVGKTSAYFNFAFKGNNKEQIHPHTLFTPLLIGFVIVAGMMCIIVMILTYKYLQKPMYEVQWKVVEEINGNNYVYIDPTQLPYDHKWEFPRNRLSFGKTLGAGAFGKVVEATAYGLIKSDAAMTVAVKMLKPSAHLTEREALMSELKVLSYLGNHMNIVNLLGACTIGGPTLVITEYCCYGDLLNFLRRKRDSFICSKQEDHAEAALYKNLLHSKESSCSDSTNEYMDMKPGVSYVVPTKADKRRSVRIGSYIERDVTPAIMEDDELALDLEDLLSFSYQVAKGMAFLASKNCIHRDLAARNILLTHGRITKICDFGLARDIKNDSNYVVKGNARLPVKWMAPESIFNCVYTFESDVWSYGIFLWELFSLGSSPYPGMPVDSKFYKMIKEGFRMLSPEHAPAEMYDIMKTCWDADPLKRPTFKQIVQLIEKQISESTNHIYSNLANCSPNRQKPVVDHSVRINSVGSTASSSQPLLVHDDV
T1 sequence (Q92918 whole entry, the tested form may be a part): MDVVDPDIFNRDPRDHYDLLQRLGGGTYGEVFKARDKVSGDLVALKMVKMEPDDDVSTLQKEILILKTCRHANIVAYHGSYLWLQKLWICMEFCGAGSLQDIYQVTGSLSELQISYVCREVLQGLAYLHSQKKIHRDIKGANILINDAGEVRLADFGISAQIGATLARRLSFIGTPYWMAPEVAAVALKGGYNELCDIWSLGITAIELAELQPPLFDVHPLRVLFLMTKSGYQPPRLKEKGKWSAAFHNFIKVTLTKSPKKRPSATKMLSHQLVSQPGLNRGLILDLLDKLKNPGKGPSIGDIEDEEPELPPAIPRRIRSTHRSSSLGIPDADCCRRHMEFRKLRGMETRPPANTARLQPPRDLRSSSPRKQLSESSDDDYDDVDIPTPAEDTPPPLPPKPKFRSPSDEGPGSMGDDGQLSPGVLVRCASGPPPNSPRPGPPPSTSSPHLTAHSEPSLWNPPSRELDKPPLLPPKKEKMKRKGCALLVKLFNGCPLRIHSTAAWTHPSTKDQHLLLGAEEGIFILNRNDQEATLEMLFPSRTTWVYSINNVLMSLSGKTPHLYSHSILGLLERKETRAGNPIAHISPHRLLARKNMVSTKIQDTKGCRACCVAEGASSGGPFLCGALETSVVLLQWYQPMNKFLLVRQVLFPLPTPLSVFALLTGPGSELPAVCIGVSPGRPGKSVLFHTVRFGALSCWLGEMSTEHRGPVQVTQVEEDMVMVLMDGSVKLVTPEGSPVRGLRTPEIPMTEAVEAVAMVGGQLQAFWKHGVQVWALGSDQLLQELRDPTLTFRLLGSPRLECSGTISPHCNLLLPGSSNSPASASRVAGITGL
Sequence of Cytochrome P450 2C19 (P33261 whole entry): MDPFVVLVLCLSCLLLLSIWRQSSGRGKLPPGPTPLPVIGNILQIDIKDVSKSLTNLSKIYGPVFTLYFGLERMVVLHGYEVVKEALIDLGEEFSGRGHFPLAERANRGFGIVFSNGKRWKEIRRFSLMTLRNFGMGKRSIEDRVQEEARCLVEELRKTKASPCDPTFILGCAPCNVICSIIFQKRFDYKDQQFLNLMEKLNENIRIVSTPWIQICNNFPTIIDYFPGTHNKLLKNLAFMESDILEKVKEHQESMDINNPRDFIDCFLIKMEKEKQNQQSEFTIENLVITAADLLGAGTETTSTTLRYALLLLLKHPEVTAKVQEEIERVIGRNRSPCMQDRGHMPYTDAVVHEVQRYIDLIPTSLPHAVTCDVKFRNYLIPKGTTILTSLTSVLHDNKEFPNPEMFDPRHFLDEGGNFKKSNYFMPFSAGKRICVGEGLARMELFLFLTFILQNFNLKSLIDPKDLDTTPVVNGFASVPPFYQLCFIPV

| Structure (SMILES) | Ki [1] [nM] | IC50 [2] [nM] | CLint scaled at 1 µM [3] [mL/min/kg] | Papp A→B at 2 h, 50 µM [8] [×10⁻⁶ cm/s] | further results |
| --- | --- | --- | --- | --- | --- |
| CN1CCN(c2ccc(-c3n[nH]c4ccc(-c5ccccc5F)nc34)cc2)CC1 | 28 | 2740 | – | – | – |
| COc1cccc(F)c1-c1cc2c(-c3ccc(N4CCN(C)CC4)cc3)n[nH]c2cn1 | < 1 | 144 | 18.3 | – | – |
| COc1cccc(F)c1-c1ncc2[nH]nc(-c3ccc(N4CCN(C)CC4)cc3)c2n1 | 2.5 | 258 | > 18.3 | – | – |
| CN1CCN(c2ccc(Nc3ncc4ccc(-c5ccccc5)cc4n3)cc2)CC1 | 492 | – | – | – | – |
| CN1CCN(c2ccc(-c3n[nH]c4cc(-c5ccccc5)cnc34)cc2)CC1 | 1150 | – | – | – | – |
| CNCc1cc(F)c(-c2cc3c(-c4cnn(C)c4)n[nH]c3cn2)c(C(F)(F)F)c1 | 3.5 | 128 | < 8.33 | 1.6 | IC50 [4]: 2230 nM; IC50 (Cytochrome P450 3A4 [5]): > 25000 nM; IC50 (Cytochrome P450 3A4 [6]): > 25000 nM; IC50 [7]: 1980 nM; inhibition (INH) (Cytochrome P450 2C19): Tde |
| CNC(C)c1cc(C)c(-c2cc3c(-c4cnn(C)c4)n[nH]c3cn2)c(F)c1 (configuration not stated) | 4 | 94 | < 8.33 | 0.2 | half-life [9]: 8.6 h; Vdss [10]: 7.6 L/kg; bioavailability [11]: 50%; clearance [12]: 18.3 mL/min/kg; AUC at 24 h [13]: 0.799 µM·h; fraction unbound [14]: 0.49; AUC at 24 h [15]: 3.93 µM·h; clearance [16]: 93.3 mL/min/kg |
| CNCc1cc(C)c(-c2cc3c(-c4cnn(C)c4)n[nH]c3cn2)c(F)c1 | 2.7 | 91 | < 8.33 | 1.1 | IC50 [4]: 1510 nM; half-life [9]: 5.5 h; Vdss [10]: 4.6 L/kg; IC50 (Cytochrome P450 3A4 [5]): > 25000 nM; bioavailability [11]: 7%; clearance [12]: 20 mL/min/kg; AUC at 24 h [13]: 0.456 µM·h; IC50 (Cytochrome P450 3A4 [6]): > 25000 nM; IC50 [7]: 7470 nM; fraction unbound [14]: 0.41; inhibition (INH) (Cytochrome P450 2C19): Tde; AUC at 24 h [15]: 0.759 µM·h; clearance [16]: 118 mL/min/kg |
| COc1cccc(F)c1-c1ccc2[nH]nc(-c3ccc(N4CCN(C)CC4)cc3)c2n1 | 3 | 395 | > 18.3 | – | – |
| CN1CCN(c2ccc(-c3n[nH]c4ccc(-c5ccccc5)nc34)cc2)CC1 | 223 | – | – | – | – |
| CNCc1cc(F)c(-c2cc3c(-c4cnn(C)c4)n[nH]c3cn2)c(F)c1 | 5.4 | 117 | < 8.33 | 0.7 | IC50 [4]: 366 nM; IC50 (Cytochrome P450 3A4 [5]): > 25000 nM; IC50 (Cytochrome P450 3A4 [6]): > 25000 nM; IC50 [7]: 1080 nM |
| COc1cccc(F)c1-c1cc2c(-c3cnn(C)c3)n[nH]c2cn1 | 2 | 148 | 13.3 | – | – |
| COc1cc(OC)c(F)c(-c2ncc3c(-c4ccc(N5CCN(C)CC5)cc4)n[nH]c3n2)c1F | 91 | – | – | – | – |
| COc1cccc(F)c1-c1ncc2[nH]nc(-c3cnn(C)c3)c2n1 | 12 | 640 | 11.7 | – | – |
| CNCc1cc(F)c(-c2cc3c(-c4cnn(C)c4)n[nH]c3cn2)c(OC)c1 | 3 | 219 | < 8.33 | 0.2 | IC50 [4]: 260 nM; IC50 [7]: 857 nM |
| Cc1cc(C2CCCCN2)cc(F)c1-c1cc2c(-c3cnn(C)c3)n[nH]c2cn1 (configuration not stated) | 4.6 | 138 | < 8.33 | 0.4 | half-life [9]: 8.9 h; Vdss [10]: 4.6 L/kg; bioavailability [11]: 55%; clearance [12]: 9 mL/min/kg; AUC at 24 h [13]: 1.46 µM·h; fraction unbound [14]: 0.5; AUC at 24 h [15]: 7.84 µM·h; clearance [16]: 80 mL/min/kg |
| CCNCc1cc(C)c(-c2cc3c(-c4cnn(C)c4)n[nH]c3cn2)c(F)c1 | 5 | 137 | < 8.33 | 1.4 | half-life [9]: 6.3 h; Vdss [10]: 3.9 L/kg; bioavailability [11]: 16%; clearance [12]: 11 mL/min/kg; AUC at 24 h [13]: 0.761 µM·h; fraction unbound [14]: 0.61; AUC at 24 h [15]: 1.64 µM·h; clearance [16]: 102 mL/min/kg |
